# Where “and” joins values, the source holds several entries; their conditions need not be identical. Equal entries are not always repeated. Where two headings read alike, the source gives them in different places. Marks after values point to notes of the source that are not given here.
# Columns and labels:
# CB1 (rCB1) [1] = molecular target: T1, CB1 (rCB1) (Rattus norvegicus, UniProt P20272); assay: Single-point radioligand displacement screen; format: binding
# CB1 (rCB1) [2] = molecular target: T1, CB1 (rCB1); assay: Radioligand competition binding, [3H]-CP-55,940, rat brain membranes
# hCB1 [3] = molecular target: T2, hCB1 (Homo sapiens, UniProt P21554); assay: Lance Ultra cAMP accumulation assay, CHO cells; format: cell-based; parameters: expressed in transfected cells; details: replicates, sheet FigureS2a;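 also: human CB1R stably expressed in CHO cells, ligands co-incubated with forskolin at room temperature, read-out is lowering of forskolin-stimulated cAMP accumulation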
# T2 sequence (P21554 whole entry): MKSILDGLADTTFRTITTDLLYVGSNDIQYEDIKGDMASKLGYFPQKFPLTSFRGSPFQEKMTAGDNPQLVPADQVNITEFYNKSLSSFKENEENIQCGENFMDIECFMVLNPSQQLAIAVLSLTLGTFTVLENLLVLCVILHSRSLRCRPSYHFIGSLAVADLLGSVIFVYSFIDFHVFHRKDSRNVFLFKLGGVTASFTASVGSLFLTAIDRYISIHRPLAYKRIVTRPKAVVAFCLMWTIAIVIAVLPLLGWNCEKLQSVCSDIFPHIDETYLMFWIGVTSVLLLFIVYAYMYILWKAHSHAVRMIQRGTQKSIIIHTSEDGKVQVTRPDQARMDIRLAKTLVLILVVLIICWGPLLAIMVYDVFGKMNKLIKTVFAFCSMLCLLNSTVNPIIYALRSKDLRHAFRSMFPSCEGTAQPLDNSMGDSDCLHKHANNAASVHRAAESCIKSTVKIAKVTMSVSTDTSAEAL
# hCB1 [4] = molecular target: T2, hCB1; assay: bioSensAll ebBRET signaling profiling, hCB1; format: cell-based; parameters: host or cells: HEK293SL cells, transient PEI transfection; details: for Barr2+GRK2 hCB1 response: Barr2+GRK2 biosensor; for Gi1 hCB1 / GoB hCB1: single replicate values, FigS6a; for EC50: read-out: EC50 [95% CI]; for Emax: normalized to CP-55,940
# T1 sequence (P20272 whole entry): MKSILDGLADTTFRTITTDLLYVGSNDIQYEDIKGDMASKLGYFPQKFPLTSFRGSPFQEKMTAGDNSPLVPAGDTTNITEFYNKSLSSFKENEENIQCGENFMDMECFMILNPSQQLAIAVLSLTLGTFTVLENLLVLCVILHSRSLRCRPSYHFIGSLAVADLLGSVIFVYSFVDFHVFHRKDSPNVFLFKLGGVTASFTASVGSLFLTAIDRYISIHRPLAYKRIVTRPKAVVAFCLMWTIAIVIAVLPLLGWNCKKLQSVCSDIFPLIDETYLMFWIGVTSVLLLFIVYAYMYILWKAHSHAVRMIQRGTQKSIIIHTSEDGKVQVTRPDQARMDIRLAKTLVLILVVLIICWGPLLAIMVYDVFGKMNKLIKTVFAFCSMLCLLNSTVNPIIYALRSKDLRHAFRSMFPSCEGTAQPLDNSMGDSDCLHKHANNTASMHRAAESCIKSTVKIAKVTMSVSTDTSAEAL
smiles,measurement,setting,value
Cc1c(C(=O)OCC2CSc3ccccc3O2)cnn1Cc1ccccc1 (centres unmarked) [‘7800],"% 1H-CP-55,940 displacement (mean) from single point screen","CB1 (rCB1) [1]; 10 µM, 1 µM or 300 nM by cell colour (not visible)",80.92%
same,rep1_displacement,"CB1 (rCB1) [1]; Figure 1c source data, replicate 1",81.9
same,rep2_displacement,"CB1 (rCB1) [1]; Figure 1c source data, replicate 2",79.7
same,rep3_displacement,"CB1 (rCB1) [1]; Figure 1c source data, replicate 3",81.1
same,"radioligand binding remaining, competition curve (Figure2e), replicate values",CB1 (rCB1) [2]; log[drug] -3.643,10.4237 and 31.3638 and 29.0535
same,"radioligand binding remaining, competition curve (Figure2e), replicate values",CB1 (rCB1) [2]; log[drug] -4.35655,33.4463 and 9.669 and 4.937
same,"radioligand binding remaining, competition curve (Figure2e), replicate values",CB1 (rCB1) [2]; log[drug] -5.07,28.6441 and 35.1835 and 32.9974
same,"radioligand binding remaining, competition curve (Figure2e), replicate values",CB1 (rCB1) [2]; log[drug] -5.783,65.4237 and 64.1301 and 55.9597
same,"radioligand binding remaining, competition curve (Figure2e), replicate values",CB1 (rCB1) [2]; log[drug] -6.496,99.1808 and 92.7484 and 90.0088
same,"radioligand binding remaining, competition curve (Figure2e), replicate values",CB1 (rCB1) [2]; log[drug] -7.21,109.096 and 99.3733 and 111.043
same,"radioligand binding remaining, competition curve (Figure2e), replicate values",CB1 (rCB1) [2]; log[drug] -7.923,105.847 and 88.1826 and 105.215
same,"radioligand binding remaining, competition curve (Figure2e), replicate values",CB1 (rCB1) [2]; log[drug] -8.636,93.4322 and 101.298 and 96.7572
same,pKi [95% CI],CB1 (rCB1) [2]; rCB1,6.0 [5.78 – 6.21]
same,"cAMP assay signal, concentration-response point",hCB1 [3]; compound 0.01 nM,0.002674 and 0.00241 and 0.002252
same,"cAMP assay signal, concentration-response point",hCB1 [3]; compound 0.1 nM,0.00346* and 0.001953 and 0.002364
same,"cAMP assay signal, concentration-response point",hCB1 [3]; compound 1 nM,0.002571 and 0.002123 and 0.001894
same,"cAMP assay signal, concentration-response point",hCB1 [3]; compound 10 nM,0.002732 and 0.002198 and 0.002584
same,"cAMP assay signal, concentration-response point",hCB1 [3]; compound 100 nM,0.002212 and 0.002457 and 0.002193
same,"cAMP assay signal, concentration-response point",hCB1 [3]; compound 1000 nM,0.002381 (2×) and 0.002128
same,"cAMP assay signal, concentration-response point",hCB1 [3]; compound 10000 nM,0.002 and 0.002342 and 0.001808
same,"cAMP assay signal, concentration-response point",hCB1 [3]; compound 100000 nM,0.001289 and 0.001131 and 0.00137
same,Barr2+GRK2 hCB1 response,hCB1 [4]; Log [Compound] (M) -4.22186,3.174
same,Barr2+GRK2 hCB1 response,hCB1 [4]; Log [Compound] (M) -4.63927,-20.118
same,Barr2+GRK2 hCB1 response,hCB1 [4]; Log [Compound] (M) -5.05788,-51.0681
same,Barr2+GRK2 hCB1 response,hCB1 [4]; Log [Compound] (M) -5.47381,-52.3444
same,Barr2+GRK2 hCB1 response,hCB1 [4]; Log [Compound] (M) -5.89285,-39.9006
same,Barr2+GRK2 hCB1 response,hCB1 [4]; Log [Compound] (M) -6.31878,-51.3872
same,Barr2+GRK2 hCB1 response,hCB1 [4]; Log [Compound] (M) -6.72585,-54.5779
same,Barr2+GRK2 hCB1 response,hCB1 [4]; Log [Compound] (M) -7.14267,-56.4924
same,Barr2+GRK2 hCB1 response,hCB1 [4]; Log [Compound] (M) -7.55284,-57.7686
same,Barr2+GRK2 hCB1 response,hCB1 [4]; Log [Compound] (M) -8,-46.9202
same,Barr2+GRK2 hCB1 response,hCB1 [4]; Log [Compound] (M) -8.22186,-10.8649
same,Barr2+GRK2 hCB1 response,hCB1 [4]; Log [Compound] (M) -8.39794,-42.7722
same,Barr2+GRK2 hCB1 response,hCB1 [4]; Log [Compound] (M) -8.68787,-27.1376
same,Barr2+GRK2 hCB1 response,hCB1 [4]; Log [Compound] (M) -9.15521,-45.9629
same,Barr2+GRK2 hCB1 response,hCB1 [4]; Log [Compound] (M) -9.61989,-54.897
same,Barr2+GRK2 hCB1 response,hCB1 [4]; Log [Compound] (M) -10.0969,-61.2784
same,Barr2+GRK2 hCB1 response,hCB1 [4]; Log [Compound] (M) -10.5529,-43.4104
same,Barr2+GRK2 hCB1 response,hCB1 [4]; Log [Compound] (M) -11.0177,-60.6403
same,Barr2+GRK2 hCB1 response,hCB1 [4]; Log [Compound] (M) -11.4949,-45.3248
same,Barr2+GRK2 hCB1 response,hCB1 [4]; Log [Compound] (M) -11.9208,-40.5387
same,Barr2+GRK2 hCB1 response,hCB1 [4]; Log [Compound] (M) -12.3979,-30.0093
same,Barr2+GRK2 hCB1 response,hCB1 [4]; Log [Compound] (M) -12.8861,-43.4104
same,Barr2+GRK2 hCB1 response,hCB1 [4]; Log [Compound] (M) -13.3979,-3.845
same,Gi1 hCB1,hCB1 [4]; Log [Compound] (M) -4.22186,25.6433
same,GoB hCB1,hCB1 [4]; Log [Compound] (M) -4.22186,18.8832
same,Gi1 hCB1,hCB1 [4]; Log [Compound] (M) -4.63927,18.3425
same,GoB hCB1,hCB1 [4]; Log [Compound] (M) -4.63927,15.081
same,Gi1 hCB1,hCB1 [4]; Log [Compound] (M) -5.05788,16.1253
same,GoB hCB1,hCB1 [4]; Log [Compound] (M) -5.05788,13.1365
same,Gi1 hCB1,hCB1 [4]; Log [Compound] (M) -5.47381,12.8471
same,GoB hCB1,hCB1 [4]; Log [Compound] (M) -5.47381,14.5949
same,Gi1 hCB1,hCB1 [4]; Log [Compound] (M) -5.89285,10.5191
same,GoB hCB1,hCB1 [4]; Log [Compound] (M) -5.89285,11.0184
same,Gi1 hCB1,hCB1 [4]; Log [Compound] (M) -6.31878,9.3
same,GoB hCB1,hCB1 [4]; Log [Compound] (M) -6.31878,4.265
same,Gi1 hCB1,hCB1 [4]; Log [Compound] (M) -6.72585,1.761
same,GoB hCB1,hCB1 [4]; Log [Compound] (M) -6.72585,-3.895
same,Gi1 hCB1,hCB1 [4]; Log [Compound] (M) -7.14267,-0.6935
same,GoB hCB1,hCB1 [4]; Log [Compound] (M) -7.14267,-5.024
same,Gi1 hCB1,hCB1 [4]; Log [Compound] (M) -7.55284,-2.087
same,GoB hCB1,hCB1 [4]; Log [Compound] (M) -7.55284,-3.843
same,Gi1 hCB1,hCB1 [4]; Log [Compound] (M) -8,-2.0396
same,GoB hCB1,hCB1 [4]; Log [Compound] (M) -8,-4.659
same,Gi1 hCB1,hCB1 [4]; Log [Compound] (M) -8.22186,3.424
same,GoB hCB1,hCB1 [4]; Log [Compound] (M) -8.22186,-0.09294
same,Gi1 hCB1,hCB1 [4]; Log [Compound] (M) -8.39794,-0.9469
same,GoB hCB1,hCB1 [4]; Log [Compound] (M) -8.39794,-3.478
same,Gi1 hCB1,hCB1 [4]; Log [Compound] (M) -8.68787,-0.4717
same,GoB hCB1,hCB1 [4]; Log [Compound] (M) -8.68787,-5.371
same,Gi1 hCB1,hCB1 [4]; Log [Compound] (M) -9.15521,-0.4876
same,GoB hCB1,hCB1 [4]; Log [Compound] (M) -9.15521,-5.492
same,Gi1 hCB1,hCB1 [4]; Log [Compound] (M) -9.61989,0.05088
same,GoB hCB1,hCB1 [4]; Log [Compound] (M) -9.61989,-8.027
same,Gi1 hCB1,hCB1 [4]; Log [Compound] (M) -10.0969,-0.4084
same,GoB hCB1,hCB1 [4]; Log [Compound] (M) -10.0969,-5.128
same,Gi1 hCB1,hCB1 [4]; Log [Compound] (M) -10.5529,-1.2
same,GoB hCB1,hCB1 [4]; Log [Compound] (M) -10.5529,-2.958
same,Gi1 hCB1,hCB1 [4]; Log [Compound] (M) -11.0177,-3.528
same,GoB hCB1,hCB1 [4]; Log [Compound] (M) -11.0177,-7.871
same,Gi1 hCB1,hCB1 [4]; Log [Compound] (M) -11.4949,-2.61
same,GoB hCB1,hCB1 [4]; Log [Compound] (M) -11.4949,-5.562
same,Gi1 hCB1,hCB1 [4]; Log [Compound] (M) -11.9208,-3.829
same,GoB hCB1,hCB1 [4]; Log [Compound] (M) -11.9208,-5.683
same,Gi1 hCB1,hCB1 [4]; Log [Compound] (M) -12.3979,-3.75
same,GoB hCB1,hCB1 [4]; Log [Compound] (M) -12.3979,-6.656
same,Gi1 hCB1,hCB1 [4]; Log [Compound] (M) -12.8861,-1.469
same,GoB hCB1,hCB1 [4]; Log [Compound] (M) -12.8861,-6.1521
same,Gi1 hCB1,hCB1 [4]; Log [Compound] (M) -13,0.2409
same,GoB hCB1,hCB1 [4]; Log [Compound] (M) -13,-5.215
same,Gi1 hCB1,hCB1 [4]; Log [Compound] (M) cell empty,-0.4876
same,GoB hCB1,hCB1 [4]; Log [Compound] (M) cell empty,-5.406
same,pEC50 [95% CI],hCB1 [4]; hCB1 Gi1,5.2 [6.0]
same,pEC50 [95% CI],hCB1 [4]; hCB1 GoB,6.2 [5.9 – 6.4]
same,EC50,hCB1 [4]; hCB1 Gi1,6.79 µM
same,EC50,hCB1 [4]; hCB1 GoB,0.597 µM
same,Emax,"hCB1 [4]; read-out: Emax [95% CI], hCB1 Gi1",34%
same,Emax,"hCB1 [4]; read-out: Emax [95% CI], hCB1 GoB",21%

# Reference: article PMC11882969 (Nature Communications, 2025)
